From ChEMBL document CHEMBL1127266, “N-sulfonamides of benzopyran-related potassium channel openers: Conversion of glyburide insensitive smooth muscle relaxants to potent smooth muscle contractors” (Bioorg Med Chem Lett, 1994)
Where “and” joins values, the source holds several entries; their conditions need not be identical. Equal entries are not always repeated.

Experiments:
Assay type in all cases: functional
Rattus norvegicus [1] = organism: Rattus norvegicus; assay: Percent activity at 30 uM as the increase (+) and/or decrease (-) in the contractile response for each individual experiment in rat bladder; parameters: scale not given: the % may be the effect or the level left
Rattus norvegicus [2] = organism: Rattus norvegicus; assay: Percent glyburide reversibility as potassium channel (K ATP) opening activity assay
Rattus norvegicus [3] = organism: Rattus norvegicus; assay: In vitro evaluation for concentration to inhibit KCI (15 mM ) induced contractions of rat bladder
Rattus norvegicus [4] = organism: Rattus norvegicus; assay: In vitro evaluation for concentration to inhibit KCI (25 mM ) induced contractions of rat aorta

Compound	Activity (Rattus norvegicus [1]) [%]	GR (Rattus norvegicus [2])	IC50 (Rattus norvegicus [3]; Rattus norvegicus) [µM]	also measured
CC1(C)Oc2ccc(OC(F)(F)F)cc2[C@@H](NS(=O)(=O)c2ccccc2)[C@@H]1O	44			
CC1(C)C[C@H](NS(=O)(=O)C(F)(F)F)c2cc(OC(F)(F)F)ccc2O1		41%	6.2	IC50 (Rattus norvegicus [4]; Rattus norvegicus, Aorta): 10.7 µM
CC1(C)Oc2ccc(C#N)cc2[C@H](N2CCCC2=O)[C@H]1O (single isomer, unassigned) [(-)-CROMAKALIM]		68% and 75%	0.15	IC50 (Rattus norvegicus [4]; Rattus norvegicus, Aorta): 0.06 µM
CC1(C)Oc2ccc(OC(F)(F)F)cc2[C@@H](NS(=O)(=O)c2cccc3ccccc23)[C@@H]1O	52			
CN([C@@H]1c2cc(OC(F)(F)F)ccc2OC(C)(C)[C@H]1O)S(=O)(=O)C(F)(F)F	352			
CC1(C)Oc2ccc(OC(F)(F)F)cc2[C@@H](NS(=O)(=O)c2ccc([N+](=O)[O-])cc2)[C@@H]1O	195			
CC1(C)Oc2ccc(OC(F)(F)F)cc2[C@@H](NS(=O)(=O)C(F)(F)F)[C@@H]1O (stereo in doubt; 1) [listing 1 of 2 here]			4.6	IC50 (Rattus norvegicus [4]): 8 µM
CC1(C)Oc2ccc(OC(F)(F)F)cc2[C@H](NS(=O)(=O)C(F)(F)F)[C@H]1O		0%	7.1	IC50 (Rattus norvegicus [4]; Rattus norvegicus, Aorta): 2.6 µM
CC1(C)Oc2ccc(OC(F)(F)F)cc2[C@@H](NS(=O)(=O)C(F)(F)F)[C@@H]1O (stereo in doubt; 8) [listing 1 of 2 here]		0%		
CC1(C)Oc2ccc(OC(F)(F)F)cc2[C@@H](NS(=O)(=O)c2cccnc2)[C@@H]1O	133			
CC1(C)Oc2ccc(OC(F)(F)F)cc2[C@@H](N2Cc3ccccc3C2=O)[C@@H]1O [CELIKALIM]		80% and 55%	0.03	IC50 (Rattus norvegicus [4]; Rattus norvegicus, Aorta): 0.013 µM
CC1(C)Oc2ccc(OC(F)(F)F)cc2[C@@H](NS(=O)(=O)C(F)(F)F)[C@@H]1O (stereo in doubt; 8) [listing 2 of 2 here]				IC50 (Rattus norvegicus [3]): 3.6 µM; IC50 (Rattus norvegicus [4]): 2 µM
CC1(C)Oc2ccc(OC(F)(F)F)cc2[C@@H](NS(=O)(=O)C(F)(F)F)[C@@H]1O (stereo in doubt; 1) [listing 2 of 2 here]		14% and 2%		
CC1(C)Oc2ccc(OC(F)(F)F)cc2[C@@H](NS(C)(=O)=O)[C@@H]1O	3	8%		
CC1(C)Oc2ccc(OC(F)(F)F)cc2[C@@H](NS(=O)(=O)CCl)[C@@H]1O	39			
CC1(C)Oc2ccc(OC(F)(F)F)cc2[C@H](NS(=O)(=O)c2ccc([N+](=O)[O-])cc2)[C@H]1O	4.68	0%		
